Laboratory results: patent publication US20250019644A1, “Quantitatively Mapping Amino Acid Properties (QMAP) Cell Culture Media” (UNIVERSITY OF IOWA RESEARCH FOUNDATION, priority 2023, published 2025)

How the values were obtained:
Assay type in all cases: cell-based, human
[1] = system: U2OS; test: CellTiter-Glo Luminescent Cell Viability Assay; conditions: 2-fold dilution series, 48 hours, QMAP
Description: (§1) HT29, 293T, U2OS, and 3T3-LI cells were plated on an opaque 96-well plate in 1:1 DMEM. […] At the appropriate time point, 100 μl of CellTiter-Glo reagent (Promega #G7570) was added to each well. The plate was gently mixed for 2 minutes to induce lysis, incubated at room-temperature for 10 minutes, and then luminescence was measured.
To test whether tryptophan inhibition of growth applied to other cell lines and persisted in conventional cell culture media, two human cancer cell lines (HT29, U2OS), a transformed human embryonic kidney cell line (293T), and a mouse, fibroblast-like cell line (3T3-L1) were grown in DMEM for 24 hours and then treated with 2 mM tryptophan or vehicle. […]

[2] = system: 293T; test: CellTiter-Glo Luminescent Cell Viability Assay; conditions: 2-fold dilution series, 48 hours, QMAP
Description: as §1
To test whether tryptophan inhibition of growth applied to other cell lines and persisted in conventional cell culture media, two human cancer cell lines (HT29, U2OS), a transformed human embryonic kidney cell line (293T), and a mouse, fibroblast-like cell line (3T3-L1) were grown in DMEM for 24 hours and then treated with 2 mM tryptophan or vehicle. After 24 hours, cells were assayed by CellTiter-Glo, which indicates cell viability by measuring ATP production.

[3] = system: HCT116 cells; test: Activity metabolomics screen of tryptophan metabolites, GC-MS profiling; conditions: 2 mM, 6 hours, QMAP
Description: (§2) 6-well plates were treated for 6 hours with 2 mM of the indicated tryptophan metabolite for 6 hours before media was quickly removed, and plates were washed 2× with ice-cold PBS and 2× with ice-cold water before being snap frozen with liquid nitrogen. Cell plates were lyophilized overnight before metabolite extraction. To extract metabolites, 1 ml of an extraction buffer composed of 2:2:1 methanol/acetonitrile/water with internal standards at 1 μg/ml each (D4-Citric Acid, 13C5-Glutamine, 13C5-Glutamic Acid, 13C6-Lysine, 13C5-Methionine, 13C3-Serine, D4-Succinic Acid, 13C11-Tryptophan, and D8-Valine; Cambridge Isotope Laboratories) was added to the lyophilized cell samples. Cells were scraped for 20 seconds and collected into Eppendorf tubes, flash-frozen in liquid nitrogen, and sonicated for 10 minutes.
(§3) Samples were then placed on a rotating platform at −20° C. for 1 hour and centrifuged at 4° C. for 10 minutes at 21,000×g. 300 μL of the cleared metabolite extracts were transferred to fresh tubes for additional processing. An equal volume of each extract was pooled to serve as a quality control (QC) sample, which was analyzed at the beginning, end, and at a regular interval throughout an instrument run. Extraction buffer alone was analyzed as a processing blank sample. Metabolite extracts, the quality control sample, and the processing blank were evaporated to dryness using a speed-vacuum.
The dried metabolite extracts, QC sample, and processing blank sample, were derivatized using methoxyamine hydrochloride (MOX) and N,O-Bis (trimethylsilyl) trifluoroacetamide (TMS) (Sigma). Briefly, dried extracts were reconstituted in 30 μL of 11.4 mg/ml MOX in anhydrous pyridine (VWR), vortexed for 10 minutes, and heated at 60° C. for 1 hour. Next, 20 μL TMS was added to each reconstituted extract, vortexed for 1 minute, and heated at 60° C. for 30 min. The derivatized metabolite extracts, blanks, and QC were immediately analyzed using GC/MS.
GC chromatographic separation was conducted on a Thermo Trace 1300 GC with a TraceGold TG-5SilMS column (0.25 μM film thickness; 0.25 mm ID; 30 m length). An injection volume of 1 μL was used for all samples, blanks, and QCs. The GC was operated in split mode with the following settings: 20:1 split ratio; split flow: […], purge flow: 5 mL/min, Carrier mode: Constant Flow, Carrier flow rate: 1.2 mL/min). The GC inlet temperature was 250° C. The GC oven temperature gradient was as follows: 80° C. for 3 min, ramped at 20° C./min to a maximum temperature of 280° C., which was held for 8 min. The injection syringe was washed 3 times with pyridine between each sample. Metabolites were detected using a Thermo ISQ single quadrupole mass spectrometer. The data was acquired from 3.90 to 21.00 min in EI mode (70eV) by single ion monitoring (SIM).
(§4) Acquired LC-MS and GC-MS data were processed using the Thermo Scientific TraceFinder software. Targeted metabolites were identified by matching accurate mass and retention times to the University of Iowa Metabolomics Core Facility's in-house library of confirmed standards. After peak area integration by TraceFinder, NOREVA software was applied for signal drift correction on a metabolite-to-metabolite basis using the pooled QC sample that had been analyzed throughout the instrument run. Within individual samples, Post-NOREVA metabolite levels were divided by the total metabolite load (sum of all metabolite values) to equally weight individual metabolites for comparison across samples.

[4] = system: HCT116 cells; test: Metabolic profiling of tryptophan metabolite-treated cells, LC-MS; conditions: 6 hours, QMAP
Description: as §2, with “6-well plates were treated for 6 hours with 2 mM of the indicated tryptophan metabolite for 6 hours before media was quickly removed, and plates were washed 2× with ice-cold PBS and 2× with ice-cold water before being snap frozen with liquid nitrogen.” left out
as §3
Dried extracts were reconstituted in 30 μL of acetonitrile/water (1:1, V/V), vortexed for 10 minutes, and incubated at −20° C. for 18 hours. Samples were then centrifuged at 4° C. for 2 minutes at 21,000×g and the supernatant was transferred to autosampler vials for analysis.
For LC chromatographic separation, 2 μL of reconstituted metabolite extracts, QC sample, and processing blank were run on a Millipore SeQuant ZIC-PHILIC (2.1×150 mm, 5 um particle size, Millipore Sigma #150460) column with a ZIC-PHILIC guard column (20×2.1 mm, Millipore Sigma #150437) attached to a Thermo Vanquish Flex UHPLC. The mobile phase comprised Buffer A [20 mM (NH4)2CO3, 0.1% NH4OH (v/v)] and Buffer B [acetonitrile]. The chromatographic gradient was run at a flow rate of 0.150 mL/min as follows: 0-20 min-linear gradient from 80 to 20% Buffer B; 20-20.5 min-linear gradient from 20 to 80% Buffer B; and 20.5-28 min-hold at 80% Buffer B. Data were acquired using a Thermo Q Exactive MS operated in full-scan, polarity-switching mode with a spray voltage set to 3.0 kV, the heated capillary held at 275° C., and the HESI probe held at 350° C. The sheath gas flow was set to 40 units, the auxiliary gas flow was set to 15 units, and the sweep gas flow was set to 1 unit. MS data acquisition was performed with polarity switching in a range of m/z 70-1,000, with the resolution set at 70,000, the AGC target at 10e6, and the maximum injection time at 200 ms. The QC sample was analyzed at the beginning and end of the LC-MS run and after every 10 samples.
as §4

[5] = system: HCT116 cells; test: Screen 2: metabolic profiling with unlabeled amino acids (LC-MS); conditions: 6 hours; for increase in intracellular relative abundance of the amino acid used for treatment: 2 mM dose, relative to untreated cells
Description: Media was changed to QMAP plus individual amino acid treatments at the start of the experiment. 200 mM amino acid stocks were used to make the QMAP+individual amino acid treatment medias that were placed in the tissue culture incubator for 30-45 minutes prior to the start of the dosing for equilibration of media bicarbonate with incubator CO2. For metabolomic profiling experiments, cells were treated with additional amino acid doses of 0.5, 1 and 2 mM, and 1 mM was used for stable isotope tracing experiments. To minimize systematic error, each amino acid dose was added as a batch (20 amino acids+vehicle control) such that each well of each plate contained a different amino acid. The process was repeated for the other two concentrations of amino acids on the next plates to make set. This was repeated four more times to achieve the sample size of 5 replicates for each of the 3 doses of amino acids. Each plate was then incubated for 6 hours in the tissue culture incubator before being rapidly washed twice with sterile water and snap frozen on liquid nitrogen before being stored at −80° C. The next day, the plates were lyophilized for 90 minutes and then stored at −80° C.
Extraction buffer was prepared by adding 2:2:1 methanol: acetonitrile: water. For profiling, the following internal standards (Cambridge Isotope Laboratories) were added at 1 μg/mL each: L-Valine-D8, L-Aspartate (^13C4, D3, ^15N) and Succinate (13C4D4). 6-well plates were removed from storage at −80° C. and 1 ml of ice-cold extraction buffer was added. Plates were incubated at −20° C. for 5 minutes, scraped, transferred to microcentrifuge tubes and frozen in liquid nitrogen. Tubes were then placed into a sonicating water bath for 10 minutes and rotated at −20° C. for 1 hour before being centrifuged at 4° C. for 10 minutes at 21,000×g. […] of extract was dried down completely using a speed-vacuum (˜90 min), dissolved in […] of acetonitrile: water (1:1), vortexed for 10 min, and stored overnight at −20° C. to allow protein precipitation. Samples were then centrifuged at 4° C. for 10 minutes at 21,000×g and the supernatants were transferred into autosampler vials for analysis. For the QCs, […] of each extract was pooled, at the step prior to drying down, mixed and dried in […] amounts alongside the samples. Once dried, QCs were processed with the samples but recombined prior to being aliquoted into autosampler vials. All samples were then frozen at −80° C., and only one set of samples, which included a QC aliquot, was thawed, vortexed and placed into the instrument.
The sheath gas flow was set to 40 units, the auxiliary gas flow was set to 15 units and the sweep gas flow was set to 1 unit. […] For tracing, […] of sample was injected twice in either positive or negative mode to maximize detection efficiency and minimize metabolite crowding using the Sim-mode.
LC-MS data was processed using the Thermo Scientific TraceFinder 5.1 software.
The three cell lines were then treated with 0.5, 1, and 2 mM of individual, unlabeled amino acids, and metabolic profiling was performed to determine how individual amino acids quantitatively altered metabolite abundance (Screen 2).

[6] = system: IDO1 mRNA; test: Quantitative PCR of IDO1 mRNA; conditions: 50 ng/μL for 24 hours, HCT116

## Nc1c(O)cccc1C(=O)CC(N)C(=O)O (stereo not shown) [3HK, 3-hydroxykynurenine]
[1]
  cell viability: dose-dependent decrease
[2]
  cell viability: dose-dependent decrease
[3]
  aconitate level: significantly increased
  citrate level: significantly increased
  disruption of TCA cycle metabolites: more potent disruption than the other tryptophan metabolites
  distal TCA cycle metabolites: drastically and significantly decreased
  glucose 6-phosphate level: Significantly increased
  ribose 5-phosphate level: Significantly increased
  ribulose 5-phosphate level: Significantly increased
[4]; 2 mM dose
  increase of xanthommatin: ~70 fold
[4]; 2 mM
  oxidized glutathione (GSSG) level: significantly decreased
  reduced glutathione (GSH) level: significantly decreased

## N[C@@H](CCC(=O)O)C(=O)O [glutamate, L-glutamic acid]
[5]; HCT116 cells
  increase in intracellular relative abundance of the amino acid used for treatment: 1.25 fold
[5]; 0.5, 1, 2 mM
  TCA cycle intermediates: increased

## NC(=O)CC[C@H](N)C(=O)O [glutamine, L-glutamine]
[5]; HCT116 cells
  increase in intracellular relative abundance of the amino acid used for treatment: ~80 fold
[5]; 0.5, 1, 2 mM
  TCA cycle intermediates: increased

## NCC(=O)O [glycine, L-glycine]
[5]; 0.5, 1, 2 mM, HCT116 cells
  serine level: proportional, dose-dependent increase

## N[C@@H](CO)C(=O)O [serine, L-serine]
[5]; 0.5, 1, 2 mM, HCT116 cells
  glycine levels: did not increase

B1: IFN-γ: the known IDO potentiator IFN-γ (protein, UniProt P01579 24-161, looked up)
Interferon gamma: QDPYVKEAENLKKYFNAGHSDVADNGTLFLGILKNWKEESDRKIMQSQIVSFYFKLFKNFKDDQSIQKSVETIKEDMNVKFFNSNKKKRDDFEKLTNYSVTDLNVQRKAIHELIQVMAELSPAAKTGKRKRSQMLFRG
[6]
  IDO1 mRNA: increased
